# Laboratory results as given in ChEMBL document CHEMBL1135818, “A new, potent urotensin II receptor peptide agonist containing a Pen residue at the disulfide bridge” (J Med Chem, 2002).
# Bridge positions count the residues as written; N and C are the ends. Square brackets hold non-standard residues; d marks the D form. Peptide text beside a SMILES is read from it. dPen = CC(C)(S)[C@@H](N)C(=O)O; Pen = CC(C)(S)[C@H](N)C(=O)O
# Molecular target: T1, Urotensin-2 receptor (Homo sapiens, UniProt Q9UKP6)
# T1 sequence (Q9UKP6 whole entry): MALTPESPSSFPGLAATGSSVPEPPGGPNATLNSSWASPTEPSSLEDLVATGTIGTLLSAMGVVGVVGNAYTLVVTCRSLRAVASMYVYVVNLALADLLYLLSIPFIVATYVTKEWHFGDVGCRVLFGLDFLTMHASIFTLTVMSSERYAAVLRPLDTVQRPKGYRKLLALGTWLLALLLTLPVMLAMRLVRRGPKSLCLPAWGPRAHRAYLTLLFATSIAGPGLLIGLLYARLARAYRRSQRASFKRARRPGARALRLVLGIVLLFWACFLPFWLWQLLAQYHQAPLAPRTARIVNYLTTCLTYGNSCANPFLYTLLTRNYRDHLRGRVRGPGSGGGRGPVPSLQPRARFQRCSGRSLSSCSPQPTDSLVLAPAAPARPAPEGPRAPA
# Test: Ability to displace radioligand [125I]Tyr-hU-II from human recombinant Urotensin 2 receptor in CHO-K1 cells
# Type: cell-based
# Conditions: not given
row,Log Ki,SMILES
1,-7.9,CC(C)[C@H](NC(=O)[C@H]1NC(=O)[C@H](Cc2ccc(O)cc2)NC(=O)[C@H](CCCCN)NC(=O)[C@H](Cc2c[nH]c3ccccc23)NC(=O)[C@H](Cc2ccccc2)NC(=O)[C@@H](NC(=O)[C@@H](N)CC(=O)O)CSSC1(C)C)C(=O)O
2,-8.9,CC(C)[C@H](NC(=O)[C@H]1NC(=O)[C@H](Cc2ccc(O)cc2)NC(=O)[C@H](CCCCN)NC(=O)[C@H](Cc2c[nH]c3ccccc23)NC(=O)[C@H](Cc2ccccc2)NC(=O)[C@@H](NC(=O)[C@@H](N)CC(=O)O)C(C)(C)SSC1(C)C)C(=O)O (H-D[Pen]FWKY[Pen]V-OH; disulfide 2-7)

# Molecular target: T2, Urotensin-2 receptor (Homo sapiens) (UniProt Q9UKP6)
# T2 sequence (whole entry): T1 sequence (Q9UKP6 whole entry)
# Conditions: CHO-K1
row,SMILES,pD2
1,CC(C)[C@H](NC(=O)[C@@H]1CSSC[C@@H](NC(=O)[C@@H](N)CC(=O)O)C(=O)N[C@@H](Cc2ccccc2)C(=O)N[C@@H](Cc2c[nH]c3ccccc23)C(=O)N[C@@H](CCCCN)C(=O)N[C@@H](Cc2ccc(O)cc2)C(=O)N1)C(=O)O (H-D[dC]FWKYCV-OH; disulfide 2-7),8.6
2,CC(C)[C@H](NC(=O)[C@@H]1CSSC[C@@H](NC(=O)[C@H](CC(=O)O)NC(=O)[C@H]2CCCN2C(=O)[C@@H](NC(=O)[C@@H](N)CCC(=O)O)[C@@H](C)O)C(=O)N[C@H](Cc2ccccc2)C(=O)N[C@@H](Cc2c[nH]c3ccccc23)C(=O)N[C@H](CCCCN)C(=O)N[C@@H](Cc2ccc(O)cc2)C(=O)N1)C(=O)O,8.3
3,CC(C)[C@H](NC(=O)[C@@H]1NC(=O)[C@H](Cc2ccc(O)cc2)NC(=O)[C@H](CCCCN)NC(=O)[C@H](Cc2c[nH]c3ccccc23)NC(=O)[C@H](Cc2ccccc2)NC(=O)[C@H](NC(=O)[C@@H](N)CC(=O)O)CSSC1(C)C)C(=O)O,6.7

# Continued, values first:
row,pD2,SMILES
1,9.6,CC(C)[C@H](NC(=O)[C@@H]1CSSC(C)(C)[C@@H](NC(=O)[C@@H](N)CC(=O)O)C(=O)N[C@@H](Cc2ccccc2)C(=O)N[C@@H](Cc2c[nH]c3ccccc23)C(=O)N[C@@H](CCCCN)C(=O)N[C@@H](Cc2ccc(O)cc2)C(=O)N1)C(=O)O (H-D[dPen]FWKYCV-OH; disulfide 2-7)
2,8.2,CC(C)[C@H](NC(=O)[C@@H]1NC(=O)[C@H](Cc2ccc(O)cc2)NC(=O)[C@H](CCCCN)NC(=O)[C@H](Cc2c[nH]c3ccccc23)NC(=O)[C@H](Cc2ccccc2)NC(=O)[C@H](NC(=O)[C@@H](N)CC(=O)O)C(C)(C)SSC1(C)C)C(=O)O (H-D[dPen]FWKY[dPen]V-OH; disulfide 2-7)
